# System: participants with SSc-RP
# Assay: Average duration of weekly RP attacks (minutes)
# Type: in vivo, human
# From the text: The absolute change in average duration of weekly RP attacks from baseline to the end of each dosing period was and will be a secondary outcome variable. The sponsor-developed participant-informed diary was and will be used to record data. Average duration of weekly RP attacks is defined as the total duration of RP attacks divided by total number of RP attacks within the last 7 days of each dosing period. Total duration of RP attacks during the last 7 days of screening period divided by the total number of RP attacks will be used as baseline for the analysis of all periods. The variable will be calculated similar to frequency data as before.
# [1] = Pooled Cilnidipine 20 mg and Cilnidipine 20 mg + Tadalafil 5 mg, Excluding Outliers, by Baseline RCS, subgroup 2, ITT Population - Part A
# [2] = Pooled Cilnidipine 20 mg and Cilnidipine 20 mg + Tadalafil 5 mg, ITT Part A
# [3] = Pooled Cilnidipine 20 mg and Cilnidipine 20 mg + Tadalafil 5 mg, by Baseline RCS, subgroup 1, ITT Population - Part A
# [4] = Pooled Cilnidipine 20 mg and Cilnidipine 20 mg + Tadalafil 5 mg, by Baseline RCS, subgroup 2, ITT Population - Part A
# [5] = Pooled Cilnidipine, n=3, Excluding Outliers, ITT Part A
# [6] = Pooled Cilnidipine, n=3, ITT Part A
# [7] = Pooled Cilnidipine, Baseline RCS subgroup 1 (unnamed), ITT Part A
# [8] = Pooled Cilnidipine, Excluding Outliers, Baseline RCS subgroup 1 (unnamed), ITT Part A
# [9] = Pooled Cilnidipine, Excluding Outliers, ITT Population - Part A
# [10] = Pooled Cilnidipine, Excluding Outliers, by Baseline RCS, subgroup 1, ITT Population - Part A
# [11] = Pooled Cilnidipine, by Baseline RCS, subgroup 1, ITT Population - Part A
smiles,measurement,setting,value
"COCCOC(=O)C1=C(C)NC(C)=C(C(=O)OC/C=C/c2ccccc2)C1c1cccc([N+](=O)[O-])c1 (centres unmarked) [Cilnidipine, cilnidipine]","Average Duration of Weekly RP Attacks (All Attacks) Change from Baseline, Median",[1],-19.09 min
same,"Average Duration of Weekly RP Attacks (All Attacks) Percent Change from Baseline, Mean",[1],−23.33%
same,"Average Duration of Weekly RP Attacks (All Attacks) Percent Change from Baseline, Median",[1],−23.33%
same,"Average Duration of Weekly RP Attacks (All Attacks), Mean",[1],62.73 min
same,"Average Duration of Weekly RP Attacks (All Attacks), Median",[1],62.73 min
same,"Average Duration of Weekly RP Attacks (All Attacks) Change from Baseline, Mean",[2],-4.77 min
same,"Average Duration of Weekly RP Attacks (All Attacks) Change from Baseline, Median",[2],-2.73 min
same,"Average Duration of Weekly RP Attacks (All Attacks) Percent Change from Baseline, Mean",[2],−13.86%
same,"Average Duration of Weekly RP Attacks (All Attacks) Percent Change from Baseline, Median",[2],−2.74%
same,"Average Duration of Weekly RP Attacks (All Attacks), Mean",[2],27.61 min
same,"Average Duration of Weekly RP Attacks (All Attacks), Median",[2],22.36 min
same,"Average Duration of Weekly RP Attacks (All Attacks) Change from Baseline, Mean",[3],0.00 min
same,"Average Duration of Weekly RP Attacks (All Attacks) Change from Baseline, Median",[3],2.16 min
same,"Average Duration of Weekly RP Attacks (All Attacks) Percent Change from Baseline, Mean",[3],−10.70%
same,"Average Duration of Weekly RP Attacks (All Attacks) Percent Change from Baseline, Median",[3],17.86%
same,"Average Duration of Weekly RP Attacks (All Attacks), Mean",[3],15.91 min
same,"Average Duration of Weekly RP Attacks (All Attacks), Median",[3],14.27 min
same,"Average Duration of Weekly RP Attacks (All Attacks) Change from Baseline, Mean",[4],-19.09 min
same,"Average Duration of Weekly RP Attacks (All Attacks) Change from Baseline, Median",[4],-19.09 min
same,"Average Duration of Weekly RP Attacks (All Attacks) Percent Change from Baseline, Mean",[4],−23.33%
same,"Average Duration of Weekly RP Attacks (All Attacks) Percent Change from Baseline, Median",[4],−23.33%
same,"Average Duration of Weekly RP Attacks (All Attacks), Mean",[4],62.73 min
same,"Average Duration of Weekly RP Attacks (All Attacks), Median",[4],62.73 min
same,Duration,Pooled Cilnidipine (n = 7),20%
same,"Average Duration of Weekly Symptomatic RP Attacks, Change from Baseline, Mean",[5],-7.67 min
same,"Average Duration of Weekly Symptomatic RP Attacks, Change from Baseline, Median",[5],-10.33 min
same,"Average Duration of Weekly Symptomatic RP Attacks, Mean",[5],21.70 min
same,"Average Duration of Weekly Symptomatic RP Attacks, Median",[5],30.45 min
same,"Average Duration of Weekly Symptomatic RP Attacks, Percent Change from Baseline, Mean",[5],−32.23%
same,"Average Duration of Weekly Symptomatic RP Attacks, Percent Change from Baseline, Median",[5],−34.60%
same,"Average Duration of Weekly Symptomatic RP Attacks, Change from Baseline, Mean",[6],-7.67 min
same,"Average Duration of Weekly Symptomatic RP Attacks, Change from Baseline, Median",[6],-10.33 min
same,"Average Duration of Weekly Symptomatic RP Attacks, Mean",[6],21.70 min
same,"Average Duration of Weekly Symptomatic RP Attacks, Median",[6],30.45 min
same,"Average Duration of Weekly Symptomatic RP Attacks, Percent Change from Baseline, Mean",[6],−32.23%
same,"Average Duration of Weekly Symptomatic RP Attacks, Percent Change from Baseline, Median",[6],−34.60%
same,"Average Duration of Weekly Symptomatic RP Attacks, Change from Baseline, Mean",[7],-7.67 min
same,"Average Duration of Weekly Symptomatic RP Attacks, Change from Baseline, Median",[7],-10.33 min
same,"Average Duration of Weekly Symptomatic RP Attacks, Mean",[7],21.70 min
same,"Average Duration of Weekly Symptomatic RP Attacks, Median",[7],30.45 min
same,"Average Duration of Weekly Symptomatic RP Attacks, Percent Change from Baseline, Mean",[7],−32.23%
same,"Average Duration of Weekly Symptomatic RP Attacks, Percent Change from Baseline, Median",[7],−34.60%
same,"Average Duration of Weekly Symptomatic RP Attacks, Change from Baseline, Mean",[8],-7.67 min
same,"Average Duration of Weekly Symptomatic RP Attacks, Change from Baseline, Median",[8],-10.33 min
same,"Average Duration of Weekly Symptomatic RP Attacks, Mean",[8],21.70 min
same,"Average Duration of Weekly Symptomatic RP Attacks, Median",[8],30.45 min
same,"Average Duration of Weekly Symptomatic RP Attacks, Percent Change from Baseline, Mean",[8],−32.23%
same,"Average Duration of Weekly Symptomatic RP Attacks, Percent Change from Baseline, Median",[8],−34.60%
same,"Average Duration of Weekly RP Attacks (All Attacks) Change from Baseline, Mean",[9],-3.55 min
same,"Average Duration of Weekly RP Attacks (All Attacks) Change from Baseline, Median",[9],-7.63 min
same,"Average Duration of Weekly RP Attacks (All Attacks) Percent Change from Baseline, Mean",[9],−23.71%
same,"Average Duration of Weekly RP Attacks (All Attacks) Percent Change from Baseline, Median",[9],−21.20%
same,"Average Duration of Weekly RP Attacks (All Attacks), Mean",[9],21.66 min
same,"Average Duration of Weekly RP Attacks (All Attacks), Median",[9],30.45 min
same,"Average Duration of Weekly RP Attacks (All Attacks) Change from Baseline, Mean",[10],-3.55 min
same,"Average Duration of Weekly RP Attacks (All Attacks) Change from Baseline, Median",[10],-7.63 min
same,"Average Duration of Weekly RP Attacks (All Attacks) Percent Change from Baseline, Mean",[10],−23.71%
same,"Average Duration of Weekly RP Attacks (All Attacks) Percent Change from Baseline, Median",[10],−21.20%
same,"Average Duration of Weekly RP Attacks (All Attacks), Mean",[10],21.66 min
same,"Average Duration of Weekly RP Attacks (All Attacks), Median",[10],30.45 min
same,"Average Duration of Weekly RP Attacks (All Attacks) Change from Baseline, Mean","Pooled Cilnidipine, ITT Part A",-3.55 min
same,"Average Duration of Weekly RP Attacks (All Attacks) Change from Baseline, Median","Pooled Cilnidipine, ITT Part A",-7.63 min
same,"Average Duration of Weekly RP Attacks (All Attacks) Percent Change from Baseline, Mean","Pooled Cilnidipine, ITT Part A",−23.71%
same,"Average Duration of Weekly RP Attacks (All Attacks) Percent Change from Baseline, Median","Pooled Cilnidipine, ITT Part A",−21.20%
same,"Average Duration of Weekly RP Attacks (All Attacks), Mean","Pooled Cilnidipine, ITT Part A",21.66 min
same,"Average Duration of Weekly RP Attacks (All Attacks), Median","Pooled Cilnidipine, ITT Part A",30.45 min
same,"Average Duration of Weekly RP Attacks (All Attacks) Change from Baseline, Mean",[11],-3.55 min
same,"Average Duration of Weekly RP Attacks (All Attacks) Change from Baseline, Median",[11],-7.63 min
same,"Average Duration of Weekly RP Attacks (All Attacks) Percent Change from Baseline, Mean",[11],−23.71%
same,"Average Duration of Weekly RP Attacks (All Attacks) Percent Change from Baseline, Median",[11],−21.20%
same,"Average Duration of Weekly RP Attacks (All Attacks), Mean",[11],21.66 min
same,"Average Duration of Weekly RP Attacks (All Attacks), Median",[11],30.45 min
same,"duration of Raynaud attacks, direction of change","cilnidipine or cilnidipine plus tadalafil (n=7), tadalafil monotherapy (n=2)",decrease greater than that seen in placebo treated patients
same,patients in whom reduction in duration exceeded a 25% threshold,cilnidipine or cilnidipine plus tadalafil treated patients,4 of 7

# Reference: patent US20240358693A1, “METHODS OF TREATING PAIN” (Aisa Pharma, Inc., priority 2023, published 2024)
